Results reported in article PMC7544826 (Communications Biology, 2020).

Assays:
Notum [1] = molecular target: T1, Notum (Homo sapiens, UniProt Q6P988, C330S); assay: Thermal shift assay (SYPRO Orange) of Notum; conditions: compound 500 µM; for Thermoflour melting curve fluorescence of Notum: Fig 2c
T1 sequence (Q6P988 81-451 C330S): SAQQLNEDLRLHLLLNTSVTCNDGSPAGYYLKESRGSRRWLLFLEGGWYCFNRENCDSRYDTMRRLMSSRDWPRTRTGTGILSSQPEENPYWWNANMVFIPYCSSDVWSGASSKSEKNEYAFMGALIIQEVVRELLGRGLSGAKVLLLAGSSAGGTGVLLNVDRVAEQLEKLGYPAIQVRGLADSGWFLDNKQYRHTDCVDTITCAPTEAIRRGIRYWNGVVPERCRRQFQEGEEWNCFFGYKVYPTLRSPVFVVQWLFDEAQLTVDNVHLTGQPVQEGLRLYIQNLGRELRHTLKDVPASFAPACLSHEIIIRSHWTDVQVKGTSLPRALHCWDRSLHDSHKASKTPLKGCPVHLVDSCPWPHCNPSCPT
Protocol: Reference wells, i.e. solutions without compounds were used to compare the melting temperature (Tm). The experiments were performed in triplicate.

Notum [2] = molecular target: T1, Notum; assay: Notum activity assay with OPTS as substrate; assay type: biochemical; parameters: The human Notum enzyme core comprising amino acids S81–T451 with a C330S mutation; made in house; dialyzed conditioned medium used without purification; conditions: result in words
Protocol: OPTS is a common lipase substrate with an octanoyl lipid linked to a fluorescent moiety. It is not a natural Notum substrate; however, it can be used to quantify the enzymatic activity of purified Notum protein[23],[25],[28]. […] The fluorescent lipase substrate OPTS was dissolved in water at a concentration of 20 µM. […] The inhibition curves were fitted with a one-site model with GraphPad Prism 8 software.

Notum [3] = molecular target: T1, Notum; assay: SPR equilibrium binding to biotinylated Notum on streptavidin chip; parameters: The human Notum enzyme core comprising amino acids S81–T451 with a C330S mutation; made in house; dialyzed conditioned medium used without purification; conditions: result in words
Protocol: The human Notum core sequence was cloned in a pHL-Avi3 vector[49] and co-transfected with the pDisplay_BirA-ER plasmid[50] into HEK293T cells with the media supplemented with 20 µM biotin. This procedure allows in vivo biotinylation to occur, and the dialyzed conditioned medium was directly used for SA sensor chip immobilization without protein purification. […] Approximately 2500 resonance units (RU) of the biotinylated Notum was coupled onto the chip. […] The response was plotted versus the concentration of the analytes and fitted by nonlinear regression to a one-site saturation binding model (GraphPad Prism 8).

SMILES: Cn1c(=O)[nH]c2ncn(C)c2c1=O [paraxanthine, 1,7-dimethylxanthine]
- Thermoflour melting curve fluorescence of Notum (Notum [1]; Temperature 24.5): 1987.07
- Thermoflour melting curve fluorescence of Notum (Notum [1]; Temperature 25.5): 1782.57
- Thermoflour melting curve fluorescence of Notum (Notum [1]; Temperature 26.5): 1579.35
- Thermoflour melting curve fluorescence of Notum (Notum [1]; Temperature 27.5): 1384.26
- Thermoflour melting curve fluorescence of Notum (Notum [1]; Temperature 28.5): 1239.77
- Thermoflour melting curve fluorescence of Notum (Notum [1]; Temperature 29.5): 1129.04
- Thermoflour melting curve fluorescence of Notum (Notum [1]; Temperature 30.5): 1031.12
- Thermoflour melting curve fluorescence of Notum (Notum [1]; Temperature 31.5): 918.053
- Thermoflour melting curve fluorescence of Notum (Notum [1]; Temperature 32.5): 770.537
- Thermoflour melting curve fluorescence of Notum (Notum [1]; Temperature 33.5): 609.721
- Thermoflour melting curve fluorescence of Notum (Notum [1]; Temperature 34.5): 426.953
- Thermoflour melting curve fluorescence of Notum (Notum [1]; Temperature 35.5): 213.386
- Thermoflour melting curve fluorescence of Notum (Notum [1]; Temperature 36.5): -34.2239
- Thermoflour melting curve fluorescence of Notum (Notum [1]; Temperature 37.5): -296.182
- Thermoflour melting curve fluorescence of Notum (Notum [1]; Temperature 38.5): -499.812
- Thermoflour melting curve fluorescence of Notum (Notum [1]; Temperature 39.5): -637.629
- Thermoflour melting curve fluorescence of Notum (Notum [1]; Temperature 40.5): -751.582
- Thermoflour melting curve fluorescence of Notum (Notum [1]; Temperature 41.5): -837.247
- Thermoflour melting curve fluorescence of Notum (Notum [1]; Temperature 42.5): -891.039
- Thermoflour melting curve fluorescence of Notum (Notum [1]; Temperature 43.5): -901.613
- Thermoflour melting curve fluorescence of Notum (Notum [1]; Temperature 44.5): -863.856
- Thermoflour melting curve fluorescence of Notum (Notum [1]; Temperature 45.5): -795.543
- Thermoflour melting curve fluorescence of Notum (Notum [1]; Temperature 46.5): -693.454
- Thermoflour melting curve fluorescence of Notum (Notum [1]; Temperature 47.5): -545.549
- Thermoflour melting curve fluorescence of Notum (Notum [1]; Temperature 48.5): -352.113
- Thermoflour melting curve fluorescence of Notum (Notum [1]; Temperature 49.5): -114.575
- Thermoflour melting curve fluorescence of Notum (Notum [1]; Temperature 50.5): 165.368
- Thermoflour melting curve fluorescence of Notum (Notum [1]; Temperature 51.5): 475.15
- Thermoflour melting curve fluorescence of Notum (Notum [1]; Temperature 52.5): 801.618
- Thermoflour melting curve fluorescence of Notum (Notum [1]; Temperature 53.5): 1178.09
- Thermoflour melting curve fluorescence of Notum (Notum [1]; Temperature 54.5): 1624.42
- Thermoflour melting curve fluorescence of Notum (Notum [1]; Temperature 55.5): 2146.78
- Thermoflour melting curve fluorescence of Notum (Notum [1]; Temperature 56.5): 2764.33
- Thermoflour melting curve fluorescence of Notum (Notum [1]; Temperature 57.5): 3495.42
- Thermoflour melting curve fluorescence of Notum (Notum [1]; Temperature 58.5): 4462.48
- Thermoflour melting curve fluorescence of Notum (Notum [1]; Temperature 59.5): 5756.59
- Thermoflour melting curve fluorescence of Notum (Notum [1]; Temperature 60.5): 7495.13
- Thermoflour melting curve fluorescence of Notum (Notum [1]; Temperature 61.5): 9729.04
- Thermoflour melting curve fluorescence of Notum (Notum [1]; Temperature 62.5): 12262.8
- Thermoflour melting curve fluorescence of Notum (Notum [1]; Temperature 63.5): 14775.9
- Thermoflour melting curve fluorescence of Notum (Notum [1]; Temperature 64.5): 17022.5
- Thermoflour melting curve fluorescence of Notum (Notum [1]; Temperature 65.5): 18955.6
- Thermoflour melting curve fluorescence of Notum (Notum [1]; Temperature 66.5): 20556.8
- Thermoflour melting curve fluorescence of Notum (Notum [1]; Temperature 67.5): 21849.9
- Thermoflour melting curve fluorescence of Notum (Notum [1]; Temperature 68.5): 22932.3
- Thermoflour melting curve fluorescence of Notum (Notum [1]; Temperature 69.5): 23847.9
- Thermoflour melting curve fluorescence of Notum (Notum [1]; Temperature 70.5): 24631
- Thermoflour melting curve fluorescence of Notum (Notum [1]; Temperature 71.5): 25359.6
- Thermoflour melting curve fluorescence of Notum (Notum [1]; Temperature 72.5): 25975.5
- Thermoflour melting curve fluorescence of Notum (Notum [1]; Temperature 73.5): 26515.7
- Thermoflour melting curve fluorescence of Notum (Notum [1]; Temperature 74.5): 27075.8
- Thermoflour melting curve fluorescence of Notum (Notum [1]; Temperature 75.5): 27622.8
- Thermoflour melting curve fluorescence of Notum (Notum [1]; Temperature 76.5): 28157.3
- Thermoflour melting curve fluorescence of Notum (Notum [1]; Temperature 77.5): 28616.3
- Thermoflour melting curve fluorescence of Notum (Notum [1]; Temperature 78.5): 29028.5
- Thermoflour melting curve fluorescence of Notum (Notum [1]; Temperature 79.5): 29470.8
- Thermoflour melting curve fluorescence of Notum (Notum [1]; Temperature 80.5): 29930.8
- Thermoflour melting curve fluorescence of Notum (Notum [1]; Temperature 81.5): 30385.9
- Thermoflour melting curve fluorescence of Notum (Notum [1]; Temperature 82.5): 30819.6
- Thermoflour melting curve fluorescence of Notum (Notum [1]; Temperature 83.5): 31270.2
- Thermoflour melting curve fluorescence of Notum (Notum [1]; Temperature 84.5): 31691.8
- Thermoflour melting curve fluorescence of Notum (Notum [1]; Temperature 85.5): 32102.2
- Thermoflour melting curve fluorescence of Notum (Notum [1]; Temperature 86.5): 32523.2
- Thermoflour melting curve fluorescence of Notum (Notum [1]; Temperature 87.5): 32949.1
- Thermoflour melting curve fluorescence of Notum (Notum [1]; Temperature 88.5): 33332.7
- Thermoflour melting curve fluorescence of Notum (Notum [1]; Temperature 89.5): 33682.6
- Thermoflour melting curve fluorescence of Notum (Notum [1]; Temperature 90.5): 34084.7
- Thermoflour melting curve fluorescence of Notum (Notum [1]; Temperature 91.5): 34496.3
- Thermoflour melting curve fluorescence of Notum (Notum [1]; Temperature 92.5): 34921.9
- Thermoflour melting curve fluorescence of Notum (Notum [1]; Temperature 93.5): 35339.5
- Thermoflour melting curve fluorescence of Notum (Notum [1]; Temperature 94.5): 35764.6
- Thermoflour melting curve fluorescence of Notum (Notum [1]; Temperature 95.5): 36159.7
- Thermoflour melting curve fluorescence of Notum (Notum [1]; Temperature 96.5): 36500.9
- Thermoflour melting curve fluorescence of Notum (Notum [1]; Temperature 97.5): 36857
- Effect on Tm of Notum (Notum [1]): little effect on the Tm
- Melting temperature (Tm) of Notum (Notum [1]; Notum without compounds Tm 63.6 °C): 63.5 °C
- Notum inhibitory effect in OPTS enzyme assay (Notum [2]): could not detect obvious Notum inhibitory effects
- Binding to Notum (SPR response) (Notum [3]): did not observe significant responses
- Binding to Notum (SPR response) (Notum [3]; listed as Paraxanthine): do not bind Notum
